Experimental data: patent US8487006B2, “Method of enhancing TGF-β signalling” (Auxagen, Inc., priority 2008, dated 2013)

How the values were obtained:
Format in all cases: cell-based
[1] = tested on: TGF-β1-stimulated Smad2 phosphorylation in Mv1Lu cells; experiment: TGF-β1-stimulated Smad2 phosphorylation, quantitative Western blot (P-Smad2/Smad2); conditions: for time dependence of the effect on TGF-β1-stimulated Smad2 phosphorylation: 20 LM MDC, 40 μM monensin, 20 μM TFP, 100 pM TGF-β1, several time periods; for concentration dependence of the effect on TGF-β1-stimulated Smad2 phosphorylation: several concentrations of the inhibitors, 100 pM TGF-β1 for 30 min
Procedure: (A-I, K) Cells were pretreated with 10 mg/ml β-CD (A, K), 20 LM MDC (B), 40 μM monensin (C), 20 μM TFP (D) and 0.45 M sucrose (K) or several concentrations (as indicated) of β-CD (E), TFP (F), monensin (G), chloroquine (H), dynasore (I), at 37° C. for 1 h. The cells were then stimulated with vehicle only or […] TGF-β1 (A to I) or several concentrations (as indicated) of TGF-β1 (K). After several time periods, as indicated, at 37° C., cell lysates were analysed by 7.5% SDS PAGE followed by Western blot analysis using antibodies to P-Smad2 and Smad2 and chemiluminescence development (a or top) and quantitation by densitometry (b or bottom). The relative level of P-Smad2 was expressed as arbitrary units (A.U.) (A, B, C, D, K) (b). The relative level of P-Smad2 in cells treated with TGF-β alone was taken as 100% of control (E to I, bottom). The data shown is representative of 3 independent experiments. (J) Cells were pretreated with 10 mg/ml β-CD (c,d) at 37° C. for 1 h. The cells were then stimulated with vehicle only (a) or with 100 pM TGF-β (b,d). After 30 min at 37° C. the cells were fixed and subjected to indirect immunofluorescent staining using antibody to P-Smad2. The magnification is 200×. The data shown is representative of 3 independent experiments.
If TGF-β-induced signaling occurs in endosomes, as reported previously^6-15, inhibitors of clathrin-dependent endocytosis would be expected to attenuate TGF-β-stimulated signaling such as Smad2 phosphorylation and nuclear colocalization^4,5. To test this, Mv1Lu cells were pretreated with vehicle only or with clathrin-dependent endocytosis inhibitors at 37° C. for 30 min and then treated with or without 100 pM TGF-β1. After several time periods, the relative levels of P-Smad2 in treated and stimulated cells were analyzed by quantitative Western blot analysis using antibodies to P-Smad2 and Smad2. […] After stimulation of cells with TGF-β1 for 60 min, β-CD, TFP, MDC and monensin enhanced TGF-β1-stimulated Smad2 phosphorylation by ˜1.5-2.5 fold (FIGS. 1Ab, 1Bb, 1Cb, and 1Db). To further characterize the effects of these inhibitors on Smad2 phosphorylation, Mv1Lu cells were pretreated with vehicle only or with several concentrations of the inhibitors at 37° C. for 30 min and then stimulated with 100 pM of TGF-β1. After 30 min at 37° C., cell lysates were subjected to Western blot analysis using antibodies to P-Smad2 and Smad2 followed by quantitation with densitometry. […] To determine the effect of β-CD on TGF-β1-stimulated nuclear localization of P-Smad2, Mv1Lu cells were pretreated with vehicle only or with β-CD (10 mg/ml). After 1 h at 37° C., cells were stimulated with TGF-β1 ([…]) for 30 min. The nuclear localization of P-Smad2 was then analyzed by indirect fluorescent staining.
To define the coated-pit stages that are important in TGF-β1-induced signaling, we treated Mv1Lu cells with hyperosmotic sucrose (0.45 M) or β-CD and examined TGF-β1-stimulated Smad2 phosphorylation in these cells. […] In cells stimulated with 100 pM TGF-β1, hyperosmotic sucrose attenuated Smad2 phosphorylation by ˜60% (FIG. 1Kb). On the other hand, β-CD enhanced TGF-β1-stimulated Smad2 phosphorylation at all concentrations of TGF-β1. It enhanced TGF-β1-stimulated Smad2 phosphorylation by 2-4 fold when compared with the control (treatment without β-CD) (FIGS. 1Ka and 1Kb).

[2] = tested on: TβR-I and SARA at the plasma membrane in Mv1Lu cells; experiment: Co-localization and accumulation of TβR-I and SARA, immunofluorescent microscopy; conditions: 20 μM TFP, 10 mg/ml β-CD, 40 μM dynasore, 200 μM chloroquine, with 100 pM TGF-β1, 30 min
Procedure: Cells were pretreated with vehicle only or 20 μM TFP, 10 mg/ml β-CD, 40 μM dynasore (Dyn) and 200 μM chloroquine (CQ) at 37° C. for 1 h. Treated cells were then stimulated with and without 100 pM TGF-β1. After 30 min at 37° C., cells were fixed and analyzed by indirect immunofluorescent staining using antibody to TβR-I (panels 1-10) and SARA (panels 11-20), DAPI (nuclear) staining was also performed (panels 21-30). Merged staining is also shown (panels 31-40). Insets indicate the co-localization and accumulation of SARA and TβR-I at the plasma membrane.
TGF-β stimulates Smad2 phosphorylation by inducing association of TβR-I and SARA^6,7 (which serves as an anchor for Smad2), binding of Smad2 to SARA, and subsequent phosphorylation of Smad2 by TβR-I in the TβR-1-SARA-Smad2 complex. If clathrin-dependent endocytosis inhibitors enhance TGF-β-induced signaling (TGF-β-stimulated Smad2 phosphorylation) by increasing accumulation of TβR-I/TβR-II complexes at the coated pits, they should promote co-localization and accumulation of TβR-I and SARA at the plasma membrane. To test this, Mv1Lu cells were stimulated with 100 pM TGF-β1. After 30 min at 37° C., […] analyzed by immunofluorescent microscopy using antibodies to TβR-I and SARA. […] This is consistent with the previous report that TGF-β enhances TGF-β receptor internalization^16.

[3] = tested on: nuclear localization of P-Smad2 in Mv1Lu cells; experiment: Nuclear localization of P-Smad2, indirect immunofluorescent staining; conditions: β-CD 10 mg/ml 1 h, then TGF-β1 (10 pM) for 30 min
Procedure: (A-I, K) Cells were pretreated with 10 mg/ml β-CD (A, K), 20 LM MDC (B), 40 μM monensin (C), 20 μM TFP (D) and 0.45 M sucrose (K) or several concentrations (as indicated) of β-CD (E), TFP (F), monensin (G), chloroquine (H), dynasore (I), at 37° C. for 1 h. The cells were then stimulated with vehicle only or […] TGF-β1 (A to I) or several concentrations (as indicated) of TGF-β1 (K). After several time periods, as indicated, at 37° C., cell lysates were analysed by 7.5% SDS PAGE followed by Western blot analysis using antibodies to P-Smad2 and Smad2 and chemiluminescence development (a or top) and quantitation by densitometry (b or bottom). The relative level of P-Smad2 was expressed as arbitrary units (A.U.) (A, B, C, D, K) (b). […]
If TGF-β-induced signaling occurs in endosomes, as reported previously^6-15, inhibitors of clathrin-dependent endocytosis would be expected to attenuate TGF-β-stimulated signaling such as Smad2 phosphorylation and nuclear colocalization^4,5. […] After several time periods, the relative levels of P-Smad2 in treated and stimulated cells were analyzed by quantitative Western blot analysis using antibodies to P-Smad2 and Smad2. […] After 30 min at 37° C., cell lysates were subjected to Western blot analysis using antibodies to P-Smad2 and Smad2 followed by quantitation with densitometry. […]

CN(C)c1cccc2c(S(=O)(=O)NCCCCCN)cccc12 [MDC, monodansylcadaverine]
time dependence of the effect on TGF-β1-stimulated Smad2 phosphorylation ([1]; 10 mg/ml β-CD): enhanced TGF-β1-stimulated Smad2 phosphorylation in a time-dependent manner

CN(C)CCCN1c2ccccc2Sc2ccc(C(F)(F)F)cc21 [TFP, triflupromazine]
time dependence of the effect on TGF-β1-stimulated Smad2 phosphorylation ([1]; 10 mg/ml β-CD): enhanced TGF-β1-stimulated Smad2 phosphorylation in a time-dependent manner | concentration dependence of the effect on TGF-β1-stimulated Smad2 phosphorylation [1]: enhanced TGF-β1-stimulated Smad2 phosphorylation in a concentration-dependent manner | co-localization and accumulation of TβR-I and SARA at the plasma membrane, co-treatment with TGF-β1 [2]: promoted co-localization and accumulation of TβR-I and SARA at the plasma membrane

CCN(CC)CCCC(C)Nc1ccnc2cc(Cl)ccc12 (stereo not drawn) [chloroquine]
concentration dependence of the effect on TGF-β1-stimulated Smad2 phosphorylation [1]: enhanced TGF-β1-stimulated Smad2 phosphorylation in a concentration-dependent manner | co-localization and accumulation of TβR-I and SARA at the plasma membrane, co-treatment with TGF-β1 [2]: promoted co-localization and accumulation of TβR-I and SARA at the plasma membrane

OC[C@H]1O[C@@](CO)(O[C@H]2O[C@H](CO)[C@@H](O)[C@H](O)[C@H]2O)[C@@H](O)[C@@H]1O [hyperosmotic sucrose, sucrose]
attenuation of Smad2 phosphorylation ([1]; hyperosmotic sucrose 0.45 M, cells stimulated with 100 pM TGF-β1): ~60% | effect on TGF-β1-stimulated Smad2 phosphorylation ([1]; hyperosmotic sucrose 0.45 M, various concentrations of TGF-β1): inhibited TGF-β1-stimulated Smad2 phosphorylation

CC[C@@]1([C@@H]2O[C@@H]([C@H]3O[C@@](O)(CO)[C@H](C)C[C@@H]3C)C[C@@H]2C)CC[C@H]([C@]2(C)CC[C@]3(C[C@H](O)[C@@H](C)[C@@H]([C@@H](C)[C@@H](OC)[C@H](C)C(=O)O)O3)O2)O1 [monensin]
time dependence of the effect on TGF-β1-stimulated Smad2 phosphorylation ([1]; 10 mg/ml β-CD): enhanced TGF-β1-stimulated Smad2 phosphorylation in a time-dependent manner | concentration dependence of the effect on TGF-β1-stimulated Smad2 phosphorylation [1]: enhanced TGF-β1-stimulated Smad2 phosphorylation in a concentration-dependent manner

methyl-β-cyclodextrin [β-CD]
time dependence of the effect on TGF-β1-stimulated Smad2 phosphorylation ([1]; 10 mg/ml β-CD): enhanced TGF-β1-stimulated Smad2 phosphorylation in a time-dependent manner | enhancement of TGF-β1-stimulated Smad2 phosphorylation compared with the control (treatment without β-CD) ([1]; 10 mg/ml β-CD, all concentrations of TGF-β1): 2-4 fold | concentration dependence of the effect on TGF-β1-stimulated Smad2 phosphorylation [1]: enhanced TGF-β1-stimulated Smad2 phosphorylation in a concentration-dependent manner | co-localization and accumulation of TβR-I and SARA at the plasma membrane, co-treatment with TGF-β1 [2]: promoted co-localization and accumulation of TβR-I and SARA at the plasma membrane | nuclear localization of P-Smad2 [3]: β-CD and TGF-β1 together promoted nuclear localization of P-Smad2
